According to patent US20230374034A1, “NOVEL BICYCLIC COMPOUNDS” (PRISM BIOLAB CO., LTD., priority 2020, published 2023):

Test system: NICD (Notch intracellular domain) CSL-bla reporter in HeLa cells
Assay: Notch assay (CellSensor T-REx NICD CSL-bla HeLa beta-lactamase reporter; Method 1 / Method 2)
Format: cell-based
Settings: Homo sapiens, 10 μM compound, Method 2 (40 nL of 1000× compound added to plate with Echo), read-out: inhibiton (%) at 10 μM
Method in brief: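 HeLa cells carrying doxycycline-inducible NICD and a CSL-driven beta-lactamase reporter, 10^3 cells/well, were treated with compound plus doxycycline for 16-20 h at 37 °C. CCF4-AM substrate was loaded for 4 h at room temperature; background-subtracted blue (460 nm)/green (530 nm) emission ratio taken per well.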

Compound: O=C(NCCc1ccccc1)[C@H](Cc1ccccc1)N1CC2N(C(=O)OCCc3ccc(O)cc3)O[C@H](Cc3ccc(O)cc3)C(=O)N2[C@@H](Cc2ccc(O)cc2)C1=O (stereo partly drawn) [Compound I-116, 4-hydroxyphenethyl (3R,6S)-3,6-bis(4-hydroxybenzyl)-4,7-dioxo-8-((S)-1-oxo-1-(phenethylamino)-3-phenylpropan-2-yl)hexahydropyrazino[2,1-c][1,2,4]oxadiazine-1(6H)-carboxylate]
- inhibition at 10 µM: 62.5%

Compound: CC(C)C[C@H]1ON(CCCc2ccccc2)C2CN(C3CCN(C)CC3)C(=O)[C@H](CC3CCCCC3)N2C1=O (stereo partly drawn) [Compound I-143, (3R,6S)-6-(cyclohexylmethyl)-3-isobutyl-8-(1-methylpiperidin-4-yl)-1-(3-phenylpropyl) tetrahydropyrazino [2,1-c][1,2,4]oxadiazine-4,7(3H,6H)-dione]
- inhibition at 10 µM: 105%

Compound: CC(C)CCOC(=O)N1O[C@H](C)C(=O)N2C1CN([C@@H](Cc1ccccc1)C(=O)NCCO)C(=O)[C@@H]2Cc1ccccc1 (stereo partly drawn) [Compound I-88, isopentyl (3R,6S)-6-benzyl-8-((S)-1-((2-hydroxyethyl)amino)-1-oxo-3-phenylpropan-2-yl)-3-methyl-4,7-dioxohexahydropyrazino[2,1-c][1,2,4]oxadiazine-1(6H)-carboxylate]
- inhibition at 10 µM: 63.9%

Compound: CC(C)C[C@H]1ON(C(=O)OCc2cccc3ccccc23)C2CN(C3CCNCC3)C(=O)[C@H](CC(C)C)N2C1=O (stereo partly drawn) [Compound I-136, naphthalen-1-ylmethyl (3R,6S)-3,6-diisobutyl-4,7-dioxo-8-(piperidin-4-yl)hexahydropyrazino[2,1-c][1,2,4]oxadiazine-1(6H)-carboxylate]
- inhibition at 10 µM: 79.7%
